Test results: US20110306639A1, “HYDROCARBYLIDENE NITROHYDROZINECARBOXIMIDAMIDES AND A METHOD FOR MAKING THE SAME, AS WELL AS THEIR USES AS AN INSECTICIDE” (priority 2008, published 2011)
Where two headings read alike, the source gives them in different places.

What was measured:
myzus persicae = settings: in vivo
asparagus caterpillar = settings: in vivo

Row | SMILES | mortality(%) Helicoverpa armigera (500 μg/mL) (Helicoverpa armigera; 500 μg/mL, 48 hours) [%] | mortality(%) myzus persicae (600 μg/mL) (myzus persicae) [%] | mortality(%) asparagus caterpillar (500 μg/mL) (asparagus caterpillar) [%] | mortality(%) Helicoverpa armigera (500 μg/mL) (Helicoverpa armigera; in vivo) [%]
1 | C=CC=NNC(=N[N+](=O)[O-])NCc1ccccc1 [Compound 44] | 30 | 45.8 | 0 | 
2 | C#CCNC(=N[N+](=O)[O-])NN=Cc1ccccc1OC [Compound 77] | 30 | 4.2 | 50 | 
3 | CCCCCCC=NNC(=N[N+](=O)[O-])NCCC [Compound 45] | 20 | 16.9 | 20 | 
4 | CCC=NNC(=N[N+](=O)[O-])NCC [Compound 9] | 60 | 54.2 | 20 | 
5 | CC=CC=NNC(=N[N+](=O)[O-])NCC [Compound 32] | 0 | 48.0 | 0 | 
6 | CCNC(=N[N+](=O)[O-])NN=CC=C(C)CCC=C(C)C [Compound 17] |  | 19.8 | 40 | 40
7 | CCC=NNC(=N[N+](=O)[O-])NCc1ccccc1 [Compound 14] | 40 | 18.8 | 30 | 
8 | C=CCNC(=N[N+](=O)[O-])NN=CC=C(C)CCC=C(C)C [Compound 20] |  | 5.2 | 50 | 0
9 | C#CCNC(=N[N+](=O)[O-])NN=CCC [Compound 13] | 50 | 5.0 | 0 | 
10 | C=CC=NNC(=N[N+](=O)[O-])NCCCC [Compound 41] | 20 | 74.7 | 10 | 
11 | C#CCNC(=N[N+](=O)[O-])NN=CC=C(C)CCC=C(C)C [Compound 21] |  | 12.8 | 30 | 20
12 | C#CCNC(=N[N+](=O)[O-])NN=CC=CC [Compound 36] | 30 | 35.0 | 50 | 
13 | CCCC=NNC(=N[N+](=O)[O-])NCCCC [Compound 26] | 20 | 65.3 | 60 | 
14 | CC(C)=CCCC(C)=CC=NNC(=N[N+](=O)[O-])NCc1ccc(Cl)nc1 [Compound 23] |  | 19.8 | 40 | 30
15 | O=[N+]([O-])N=C(NCc1ccccc1)NN=Cc1ccccc1Cl [Compound 92] |  | 45.8 | 70 | 50
16 | C=CCNC(=N[N+](=O)[O-])NN=CCCCC [Compound 53] | 40 | 81.0 | 80 | 
17 | CCCC=NNC(=N[N+](=O)[O-])NCc1ccc(Cl)nc1 [Compound 30] |  | 80.7 | 40 | 40
18 | C#CCNC(=N[N+](=O)[O-])NN=Cc1ccccc1Cl [Compound 94] |  | 31.2 | 60 | 50
19 | CCCNC(=N[N+](=O)[O-])NN=Cc1ccccc1Cl [Compound 90] |  | 41.2 | 50 | 10
20 | C=CCNC(=N[N+](=O)[O-])NN=CCCC [Compound 27] | 30 | 65.1 | 40 | 
